Results taken from PubChem BioAssay AID1963871 (Molecular Pharmacology Branch, DTP, NCI, 2024).

System: KRAS-mutant PDC multicell tumor spheroid viability
Experiment: Anticancer human tumor 521955-158-R2-J5-PDC patient-derived pancreatic carcinoma cell line growth inhibition [KRAS2]
Conditions: for IC50: curve of first compound; for viability, T/C: stronger effect = lower value
Procedure, shortened: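 KRAS-mutant tumor cells were grown as spheroids with HUVEC endothelial cells and human MSCs as stroma. Targeted agents were tested alone and with KRAS pathway inhibitors. Doses started at or near clinical Cmax, or 10 microM, descending half-log.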

[1] = second compound 0.1 µM, first compound 0.0316 µM
[2] = second compound 0.1 µM, first compound 0.1 µM
[3] = second compound 0.1 µM, first compound 0.316 µM
[4] = second compound 0.1 µM, first compound 1 µM
[5] = second compound 0.1 µM, first compound 3.16 µM
[6] = second compound 0.316 µM, first compound 0.0316 µM
[7] = second compound 0.316 µM, first compound 0.1 µM
[8] = second compound 0.316 µM, first compound 0.316 µM
[9] = second compound 0.316 µM, first compound 1 µM
[10] = second compound 0.316 µM, first compound 3.16 µM
[11] = second compound 1 µM, first compound 0.0316 µM
[12] = second compound 1 µM, first compound 0.1 µM
[13] = second compound 1 µM, first compound 0.316 µM
[14] = second compound 1 µM, first compound 1 µM
[15] = second compound 1 µM, first compound 3.16 µM
[16] = second compound 3.16 µM, first compound 0.0316 µM
[17] = second compound 3.16 µM, first compound 0.1 µM
[18] = second compound 3.16 µM, first compound 0.316 µM
[19] = second compound 3.16 µM, first compound 1 µM
[20] = second compound 3.16 µM, first compound 3.16 µM
[21] = second compound 10 µM, first compound 0.0316 µM
[22] = second compound 10 µM, first compound 0.1 µM
[23] = second compound 10 µM, first compound 0.316 µM
[24] = second compound 10 µM, first compound 1 µM
[25] = second compound 10 µM, first compound 3.16 µM
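Also: viability read after seven days of drug exposure.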

| SMILES | IC50 (second compound 0.1 µM) | IC50 (second compound 0.316 µM) | IC50 (second compound 1 µM) | IC50 (second compound 3.16 µM) | IC50 (second compound 10 µM) | viability, T/C [1] | viability, T/C [2] | viability, T/C [3] | viability, T/C [4] | viability, T/C [5] | viability, T/C [6] | viability, T/C [7] | viability, T/C [8] | viability, T/C [9] | viability, T/C [10] | viability, T/C [11] | viability, T/C [12] | viability, T/C [13] | viability, T/C [14] | viability, T/C [15] | also measured |
| --- | --- | --- | --- | --- | --- | --- | --- | --- | --- | --- | --- | --- | --- | --- | --- | --- | --- | --- | --- | --- | --- |
| CC1COCCN1c1cc(-c2ccnn2C)c2ccnc(-c3ccn[nH]3)c2n1 (stereo not given) + CC1OCC2(CCN(c3cnc(Sc4ccnc(N)c4Cl)c(N)n3)CC2)C1N | 18.3 nM | 16.1 nM | 13.2 nM | 13.9 nM | 10.6 nM | 27.6% | 7.87% | 9.44% | 14.9% | 16.7% | 25.4% | 6.51% | 8.34% | 12.3% | 17.1% | 29% | 7.13% | 7.87% | 11.1% | 17.2% | viability, T/C (second compound 0.1 µM, first compound 0.01 µM): 75%; viability, T/C (second compound 0.316 µM, first compound 0.01 µM): 67.2%; viability, T/C (second compound 1 µM, first compound 0.01 µM): 56.6%; viability, T/C (second compound 3.16 µM, first compound 0.01 µM): 59.9%; viability, T/C [16]: 25.4%; viability, T/C [17]: 7.05%; viability, T/C [18]: 7.79%; viability, T/C [19]: 10.5%; viability, T/C [20]: 16.8%; viability, T/C (second compound 10 µM, first compound 0.01 µM): 51.3%; viability, T/C [21]: 27.4%; viability, T/C [22]: 7.9%; viability, T/C [23]: 8.11%; viability, T/C [24]: 11.4%; viability, T/C [25]: 15.6% |
| Cn1nccc1Nc1nccc(-c2cc3c(s2)C(C)(C)N(CCN2CCOCC2)C3=O)n1 + CC1OCC2(CCN(c3cnc(Sc4ccnc(N)c4Cl)c(N)n3)CC2)C1N | 493 nM | 485 nM | 490 nM | 602 nM | 427 nM | 94.1% | 70.9% | 58.5% | 41.5% | 25% | 69.9% | 62.1% | 58.4% | 38.5% | 25.4% | 73.6% | 66.9% | 57.5% | 38.7% | 24.7% | viability, T/C (second compound 0.1 µM, first compound 10 µM): 19.6%; viability, T/C (second compound 0.316 µM, first compound 10 µM): 15.6%; viability, T/C (second compound 1 µM, first compound 10 µM): 15.9%; viability, T/C [16]: 71.4%; viability, T/C [17]: 63.1%; viability, T/C [18]: 63%; viability, T/C [19]: 40.4%; viability, T/C [20]: 23.3%; viability, T/C (second compound 3.16 µM, first compound 10 µM): 18.4%; viability, T/C [21]: 50.9%; viability, T/C [22]: 56%; viability, T/C [23]: 57.9%; viability, T/C [24]: 36%; viability, T/C [25]: 27.3%; viability, T/C (second compound 10 µM, first compound 10 µM): 18.2% |
